From ChEMBL document CHEMBL4507327 (2021)
Each block holds one compound with its values, some of them ahead of it.

Assays:
[1] = molecular target: Voltage-dependent N-type calcium channel subunit alpha-1B (Homo sapiens) (UniProt Q00975); test: Inhibition of Calcium Channel N-Type at 10 µM in the Eurofins-Panlabs radioligand binding assay (Eurofins_assay_216000); conditions: Rattus norvegicus; Compound concentration 10.0 uM
[2] = molecular target: GABA-A receptor; anion channel (Rattus norvegicus) (UniProt O09028+P15431+P18506+P18508+P19969+P20236+P23574+P23576+P28471+P28473+P30191+P62813+P63079+P63138+Q91ZM7+Q9ES14); test: Inhibition of GABAA, Muscimol, Central at 10 µM in the Eurofins-Panlabs radioligand binding assay (Eurofins_assay_226500); type: protein-complex assay; conditions: Compound concentration 10.0 uM
[3] = molecular target: Neuropeptide Y receptor type 2 (Homo sapiens) (UniProt P49146); test: Inhibition of Neuropeptide Y Y2 at 10 µM in the Eurofins-Panlabs radioligand binding assay (Eurofins_assay_257110); conditions: Compound concentration 10.0 uM
Rattus norvegicus = species: Rattus norvegicus; test: Inhibition of Thyroid Hormone at 10 µM in the Eurofins-Panlabs radioligand binding assay (Eurofins_assay_285900); type: protein assay; conditions: Compound concentration 10.0 uM
[4] = molecular target: Purinergic P2Y (Rattus norvegicus) (UniProt O35811+Q9EPX4+P49651+Q63371+P41232+O35881+Q6GUG4); test: Inhibition of Purinergic P2Y at compound concentration of 10.0 uM in the Eurofins-Panlabs radioligand binding assay (Eurofins_assay_268820); type: protein assay; set-up: ligand concentration 0.1 nM; conditions: Compound concentration 10.0 uM
Activin receptor type-2A = Activin receptor type-2A (Homo sapiens, UniProt P27037); test: ACtR2(AC2ALGE1) Takeda global kinase panel
[5] = molecular target: Cytoplasmic tyrosine-protein kinase BMX (Homo sapiens, UniProt P51813); test: Etk [BMX(BMX1CGF1)] Takeda global kinase panel
[6] = molecular target: Cyclin-dependent kinase 5 (Homo sapiens, UniProt Q00535); test: CDK5(CDK5CGS1) Takeda global kinase panel
[7] = molecular target: Cyclin-dependent kinase 7 (Homo sapiens, UniProt P50613); test: CDK7(CDK7CGS1) Takeda global kinase panel
[8] = molecular target: Cyclin-dependent kinase 9 (Homo sapiens, UniProt P50750); test: CDK9(CDK9CGS1) Takeda global kinase panel
[9] = molecular target: Dual specificity protein kinase CLK1 (Homo sapiens, UniProt P49759); test: CLK1(CLK1LGF1) Takeda global kinase panel
[10] = molecular target: Casein kinase II subunit alpha (Homo sapiens, UniProt P68400); test: CK2alpha1(C2A1LGF1) Takeda global kinase panel
[11] = molecular target: Dual specificity tyrosine-phosphorylation-regulated kinase 2 (Homo sapiens, UniProt Q92630); test: DYRK2(DYR2LGY1) Takeda global kinase panel
[12] = molecular target: Dual specificity tyrosine-phosphorylation-regulated kinase 4 (Homo sapiens, UniProt Q9NR20); test: DYRK4(DYR4LHY1) Takeda global kinase panel
[13] = molecular target: Interferon-induced, double-stranded RNA-activated protein kinase (Homo sapiens, UniProt P19525); test: PKR(EIK2LGY1) Takeda global kinase panel
[14] = molecular target: Eukaryotic translation initiation factor 2-alpha kinase 3 (Homo sapiens, UniProt Q9NZJ5); test: PERK [PEK(EIK3CGQ1)] Takeda global kinase panel
[15] = molecular target: Tyrosine-protein kinase FRK (Homo sapiens, UniProt P42685); test: FRK(FRK1LGF1) Takeda global kinase panel
[16] = molecular target: Homeodomain-interacting protein kinase 4 (Homo sapiens, UniProt Q8NE63); test: HIPK4(HIP4LHY1) Takeda global kinase panel
[17] = molecular target: Insulin-like growth factor 1 receptor (Homo sapiens, UniProt P08069); test: IGF1R(IGF1LGF1) Takeda global kinase panel
LIM domain kinase 1 = LIM domain kinase 1 (Homo sapiens, UniProt P53667); test: LIMK1(LIM1LGY1) Takeda global kinase panel
[18] = molecular target: Mitogen-activated protein kinase kinase kinase 13 (Homo sapiens, UniProt O43283); test: LZK(M313LGRJ) Takeda global kinase panel
[19] = molecular target: Mitogen-activated protein kinase 6 (Homo sapiens, UniProt Q16659); test: ERK3(MAP6LHY1) Takeda global kinase panel
[20] = molecular target: Muscle, skeletal receptor tyrosine-protein kinase (Homo sapiens, UniProt O15146); test: MUSK(MUSKLGY1) Takeda global kinase panel
[21] = molecular target: Myosin light chain kinase (Homo sapiens, UniProt Q32MK0); test: caMLCK(MYL3LGF1) Takeda global kinase panel
Myosin-IIIb = Myosin-IIIb (Homo sapiens, UniProt Q8WXR4); test: MYO3B(MY3BLGA1) Takeda global kinase panel
[22] = molecular target: Serine/threonine-protein kinase NLK (Homo sapiens, UniProt Q9UBE8); test: NLK(NLK1LGI5) Takeda global kinase panel
[23] = molecular target: Serine/threonine-protein kinase PAK 4 (Homo sapiens, UniProt O96013); test: PAK4(PAK4CGY1) Takeda global kinase panel
[24] = molecular target: Platelet-derived growth factor receptor beta (Homo sapiens, UniProt P09619); test: PDGFRbeta(PDGBIHC1) Takeda global kinase panel
[25] = molecular target: Serine/threonine-protein kinase pim-1 (Homo sapiens, UniProt P11309); test: Pim1(PIM1LGP1) Takeda global kinase panel
[26] = molecular target: Serine/threonine-protein kinase PLK4 (Homo sapiens, UniProt O00444); test: PLK4(PLK4LGF1) Takeda global kinase panel
[27] = molecular target: Serine/threonine-protein kinase D2 (Homo sapiens, UniProt Q9BZL6); test: PKD2(PRD2LHY1) Takeda global kinase panel
[28] = molecular target: Rho-associated protein kinase 1 (Homo sapiens, UniProt Q13464); test: ROCK1(ROC1LGY1) Takeda global kinase panel
[29] = molecular target: Serine/threonine-protein kinase SIK2 (Homo sapiens, UniProt Q9H0K1); test: QIK(SIK2LGY1) Takeda global kinase panel
[30] = molecular target: Serine/threonine-protein kinase TBK1 (Homo sapiens, UniProt Q9UHD2); test: TBK1(TBK1CGF1) Takeda global kinase panel
[31] = molecular target: Mitogen-activated protein kinase kinase kinase 20 (Homo sapiens, UniProt Q9NYL2); test: ZAK(ZAK1LGY1) Takeda global kinase panel
[32] = molecular target: Hormonally up-regulated neu tumor-associated kinase (Homo sapiens, UniProt P57058); test: HUNK(HUNKLGRN) Takeda global kinase panel
[33] = molecular target: Uncharacterized serine/threonine-protein kinase SBK3 (Homo sapiens, UniProt P0C264); test: SgK110(SG10LGF1) Takeda global kinase panel
[34] = molecular target: Phosphatidylinositol 4,5-bisphosphate 3-kinase catalytic subunit delta isoform (Homo sapiens, UniProt O00329); test: PI3KCD(PI3DCGRK) Takeda global kinase panel
[35] = molecular target: D(2) dopamine receptor (Homo sapiens) (UniProt P14416); conditions: Compound concentration 10.0 uM
[36] = molecular target: D(3) dopamine receptor (Homo sapiens) (UniProt P35462); conditions: Compound concentration 10.0 uM
[37] = molecular target: Glutamate NMDA receptor (Rattus norvegicus) (UniProt P35439+Q00959+Q00960+Q00961+Q62645+Q8VHN2+Q9R1M7); conditions: Compound concentration 10.0 uM

Sequence of Myosin light chain kinase (Q32MK0 whole entry): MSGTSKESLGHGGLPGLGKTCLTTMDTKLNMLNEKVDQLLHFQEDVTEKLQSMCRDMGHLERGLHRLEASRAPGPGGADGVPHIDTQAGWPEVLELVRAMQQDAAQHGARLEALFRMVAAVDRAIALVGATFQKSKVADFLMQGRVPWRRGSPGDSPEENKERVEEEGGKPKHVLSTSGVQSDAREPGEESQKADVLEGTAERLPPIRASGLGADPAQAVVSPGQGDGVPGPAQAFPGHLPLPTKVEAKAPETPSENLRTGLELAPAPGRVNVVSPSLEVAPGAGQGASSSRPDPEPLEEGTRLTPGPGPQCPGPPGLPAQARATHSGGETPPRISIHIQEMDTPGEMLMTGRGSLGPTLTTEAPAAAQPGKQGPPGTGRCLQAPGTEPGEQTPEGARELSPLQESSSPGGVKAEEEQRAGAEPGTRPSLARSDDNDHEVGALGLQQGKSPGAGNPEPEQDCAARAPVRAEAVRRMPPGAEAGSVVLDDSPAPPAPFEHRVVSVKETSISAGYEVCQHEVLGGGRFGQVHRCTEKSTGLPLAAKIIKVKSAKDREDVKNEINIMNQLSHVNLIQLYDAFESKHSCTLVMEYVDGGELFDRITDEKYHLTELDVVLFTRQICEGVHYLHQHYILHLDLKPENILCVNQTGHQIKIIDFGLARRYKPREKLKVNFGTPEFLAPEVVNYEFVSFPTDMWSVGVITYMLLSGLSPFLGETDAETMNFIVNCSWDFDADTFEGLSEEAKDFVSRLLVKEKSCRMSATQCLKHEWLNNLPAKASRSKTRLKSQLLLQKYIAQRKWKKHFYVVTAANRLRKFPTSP
Sequence of Cyclin-dependent kinase 7 (P50613 whole entry): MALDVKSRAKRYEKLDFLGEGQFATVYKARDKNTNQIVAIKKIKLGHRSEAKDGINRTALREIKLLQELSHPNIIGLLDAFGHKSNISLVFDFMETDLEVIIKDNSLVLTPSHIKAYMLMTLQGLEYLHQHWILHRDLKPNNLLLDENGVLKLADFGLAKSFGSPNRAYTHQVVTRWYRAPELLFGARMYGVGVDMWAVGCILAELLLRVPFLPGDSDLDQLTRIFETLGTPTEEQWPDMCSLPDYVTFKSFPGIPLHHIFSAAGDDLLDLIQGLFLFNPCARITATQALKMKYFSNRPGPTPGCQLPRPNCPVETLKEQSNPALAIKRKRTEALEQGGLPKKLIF
Sequence of Serine/threonine-protein kinase pim-1 (P11309 whole entry): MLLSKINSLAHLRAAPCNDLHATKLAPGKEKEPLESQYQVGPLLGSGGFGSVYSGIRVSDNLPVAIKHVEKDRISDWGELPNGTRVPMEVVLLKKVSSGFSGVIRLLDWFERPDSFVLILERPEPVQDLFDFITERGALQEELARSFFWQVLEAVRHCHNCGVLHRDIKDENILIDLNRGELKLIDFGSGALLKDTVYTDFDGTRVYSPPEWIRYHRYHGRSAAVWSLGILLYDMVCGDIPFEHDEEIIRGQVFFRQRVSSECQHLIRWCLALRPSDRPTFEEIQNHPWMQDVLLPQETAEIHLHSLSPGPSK
Sequence of D(2) dopamine receptor (Homo sapiens) (P14416 whole entry): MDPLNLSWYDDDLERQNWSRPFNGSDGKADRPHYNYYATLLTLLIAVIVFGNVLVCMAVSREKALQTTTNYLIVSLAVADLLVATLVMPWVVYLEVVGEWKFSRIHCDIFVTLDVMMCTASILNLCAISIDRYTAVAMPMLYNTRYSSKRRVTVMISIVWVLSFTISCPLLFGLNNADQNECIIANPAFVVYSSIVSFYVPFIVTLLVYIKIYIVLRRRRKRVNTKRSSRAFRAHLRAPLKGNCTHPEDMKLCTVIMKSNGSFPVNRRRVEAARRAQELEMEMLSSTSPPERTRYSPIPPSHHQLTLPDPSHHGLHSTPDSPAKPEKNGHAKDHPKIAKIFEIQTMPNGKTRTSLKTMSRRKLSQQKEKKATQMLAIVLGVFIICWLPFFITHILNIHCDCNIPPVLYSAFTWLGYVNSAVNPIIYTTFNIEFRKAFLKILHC
Sequence of Serine/threonine-protein kinase PLK4 (O00444 whole entry): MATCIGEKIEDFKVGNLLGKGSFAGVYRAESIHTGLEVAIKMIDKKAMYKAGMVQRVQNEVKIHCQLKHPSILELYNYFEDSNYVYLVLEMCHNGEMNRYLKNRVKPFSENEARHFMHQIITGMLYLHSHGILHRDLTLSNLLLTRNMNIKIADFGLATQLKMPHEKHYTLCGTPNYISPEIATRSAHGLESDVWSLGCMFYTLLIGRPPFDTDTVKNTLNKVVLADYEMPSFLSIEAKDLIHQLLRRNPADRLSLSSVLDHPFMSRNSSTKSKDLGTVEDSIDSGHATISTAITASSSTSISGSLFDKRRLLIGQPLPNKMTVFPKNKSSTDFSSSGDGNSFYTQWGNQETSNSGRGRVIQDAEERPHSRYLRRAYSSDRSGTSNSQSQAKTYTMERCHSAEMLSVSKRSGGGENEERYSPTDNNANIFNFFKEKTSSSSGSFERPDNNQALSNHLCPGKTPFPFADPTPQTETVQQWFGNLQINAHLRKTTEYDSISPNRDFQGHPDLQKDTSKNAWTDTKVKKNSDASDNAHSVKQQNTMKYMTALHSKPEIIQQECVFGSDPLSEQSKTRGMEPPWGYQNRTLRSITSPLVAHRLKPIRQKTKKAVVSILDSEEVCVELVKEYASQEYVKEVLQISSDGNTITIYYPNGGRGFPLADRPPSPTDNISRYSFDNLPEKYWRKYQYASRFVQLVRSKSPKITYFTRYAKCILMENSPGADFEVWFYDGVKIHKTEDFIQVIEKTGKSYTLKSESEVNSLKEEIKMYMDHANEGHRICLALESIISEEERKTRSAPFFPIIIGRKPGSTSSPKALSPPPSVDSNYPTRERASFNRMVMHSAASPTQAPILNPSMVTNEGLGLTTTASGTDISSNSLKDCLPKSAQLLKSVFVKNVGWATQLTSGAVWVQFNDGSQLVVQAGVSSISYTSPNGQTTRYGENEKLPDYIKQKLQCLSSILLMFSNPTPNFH
Sequence of Serine/threonine-protein kinase TBK1 (Q9UHD2 whole entry): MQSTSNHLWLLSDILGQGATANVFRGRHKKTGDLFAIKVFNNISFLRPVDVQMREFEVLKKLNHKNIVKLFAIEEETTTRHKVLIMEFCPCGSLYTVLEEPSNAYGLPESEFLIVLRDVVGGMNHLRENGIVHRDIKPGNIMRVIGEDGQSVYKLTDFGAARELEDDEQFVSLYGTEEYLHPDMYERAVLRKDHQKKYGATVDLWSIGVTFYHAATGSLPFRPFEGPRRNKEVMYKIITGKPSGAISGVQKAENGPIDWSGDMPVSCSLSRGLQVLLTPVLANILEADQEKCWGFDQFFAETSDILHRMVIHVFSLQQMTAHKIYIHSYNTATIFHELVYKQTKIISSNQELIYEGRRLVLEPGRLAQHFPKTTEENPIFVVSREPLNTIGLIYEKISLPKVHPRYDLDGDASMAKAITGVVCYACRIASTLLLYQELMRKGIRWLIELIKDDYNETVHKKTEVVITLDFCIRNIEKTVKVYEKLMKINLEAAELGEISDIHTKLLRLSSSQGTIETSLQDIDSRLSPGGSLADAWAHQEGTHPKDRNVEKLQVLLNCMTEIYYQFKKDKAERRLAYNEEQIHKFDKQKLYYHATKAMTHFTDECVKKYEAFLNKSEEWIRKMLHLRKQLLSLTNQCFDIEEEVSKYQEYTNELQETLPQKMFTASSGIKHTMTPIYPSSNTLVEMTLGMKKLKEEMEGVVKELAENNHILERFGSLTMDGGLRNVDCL
Sequence of LIM domain kinase 1 (P53667 whole entry, the tested form may be a part): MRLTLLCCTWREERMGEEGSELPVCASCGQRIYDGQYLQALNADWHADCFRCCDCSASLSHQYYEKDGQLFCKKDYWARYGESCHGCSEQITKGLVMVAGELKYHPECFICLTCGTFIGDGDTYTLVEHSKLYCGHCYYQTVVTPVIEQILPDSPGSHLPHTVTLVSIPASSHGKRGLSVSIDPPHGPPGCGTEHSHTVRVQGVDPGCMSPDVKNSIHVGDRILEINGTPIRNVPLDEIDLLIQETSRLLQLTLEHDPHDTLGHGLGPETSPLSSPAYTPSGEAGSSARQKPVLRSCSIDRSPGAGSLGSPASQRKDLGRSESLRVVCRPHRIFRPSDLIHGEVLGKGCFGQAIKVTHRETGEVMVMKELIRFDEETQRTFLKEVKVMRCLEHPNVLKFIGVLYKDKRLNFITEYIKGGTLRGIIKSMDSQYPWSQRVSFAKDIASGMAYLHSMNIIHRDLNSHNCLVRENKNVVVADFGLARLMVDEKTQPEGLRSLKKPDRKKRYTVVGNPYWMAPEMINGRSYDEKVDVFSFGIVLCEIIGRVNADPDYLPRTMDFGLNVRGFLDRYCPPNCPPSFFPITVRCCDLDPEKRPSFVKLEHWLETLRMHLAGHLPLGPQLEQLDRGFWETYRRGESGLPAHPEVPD
Sequence of Dual specificity tyrosine-phosphorylation-regulated kinase 4 (Q9NR20 whole entry): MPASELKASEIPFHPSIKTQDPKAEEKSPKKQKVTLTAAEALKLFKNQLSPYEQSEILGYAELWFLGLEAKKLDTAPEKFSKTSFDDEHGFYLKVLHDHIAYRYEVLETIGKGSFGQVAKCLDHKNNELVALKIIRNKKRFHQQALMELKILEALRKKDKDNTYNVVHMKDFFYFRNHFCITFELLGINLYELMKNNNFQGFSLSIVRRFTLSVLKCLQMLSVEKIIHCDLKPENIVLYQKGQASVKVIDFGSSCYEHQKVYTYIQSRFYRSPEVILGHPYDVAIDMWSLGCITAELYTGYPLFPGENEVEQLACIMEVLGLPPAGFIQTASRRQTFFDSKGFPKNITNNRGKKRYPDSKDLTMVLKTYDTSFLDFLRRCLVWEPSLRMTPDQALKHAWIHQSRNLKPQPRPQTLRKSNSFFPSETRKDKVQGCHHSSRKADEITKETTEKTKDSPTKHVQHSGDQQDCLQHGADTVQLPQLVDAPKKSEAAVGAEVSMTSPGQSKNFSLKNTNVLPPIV

SMILES: CN1C(=O)[C@@H](N2CCc3cn(Cc4ccccc4)nc3C2=O)COc2ccccc21 [TP-030-1]
inhibition [1]: -2%
inhibition [2]: -1%
inhibition [3]: 2%
inhibition (Rattus norvegicus): 24%
inhibition [4]: -5%
IC50 (Activin receptor type-2A): 1 µM
IC50 [5]: 1 µM
IC50 [6]: 1 µM
IC50 [7]: 1 µM
IC50 [8]: 1 µM
IC50 [9]: 1 µM
IC50 [10]: 1 µM
IC50 [11]: 1 µM
IC50 [12]: 1 µM
IC50 [13]: 1 µM
IC50 [14]: 1 µM
IC50 [15]: 1 µM
IC50 [16]: 1 µM
IC50 [17]: 1 µM
IC50 (LIM domain kinase 1): 1 µM
IC50 [18]: 1 µM
IC50 [19]: 1 µM
IC50 [20]: 1 µM
IC50 [21]: 1 µM
IC50 (Myosin-IIIb): 1 µM
IC50 [22]: 1 µM
IC50 [23]: 1 µM
IC50 [24]: 1 µM
IC50 [25]: 1 µM
IC50 [26]: 1 µM
IC50 [27]: 1 µM
IC50 [28]: 1 µM
IC50 [29]: 1 µM
IC50 [30]: 1 µM
IC50 [31]: 1 µM
IC50 [32]: 1 µM
IC50 [33]: 1 µM
IC50 [34]: 1 µM
inhibition [35]: 7%
inhibition [36]: 8%
inhibition [37]: 0%

inhibition [1]: 2%
inhibition [2]: -7%
inhibition [3]: 1%
inhibition (Rattus norvegicus): 21%
inhibition [4]: 8%
IC50 (Activin receptor type-2A): 1 µM
IC50 [5]: 1 µM
IC50 [6]: 1 µM
IC50 [7]: 1 µM
IC50 [8]: 1 µM
IC50 [9]: 1 µM
IC50 [10]: 1 µM
IC50 [11]: 1 µM
IC50 [12]: 1 µM
IC50 [13]: 1 µM
IC50 [14]: 1 µM
IC50 [15]: 1 µM
IC50 [16]: 1 µM
IC50 [17]: 1 µM
IC50 (LIM domain kinase 1): 1 µM
IC50 [18]: 1 µM
IC50 [19]: 1 µM
IC50 [20]: 1 µM
IC50 [21]: 1 µM
IC50 (Myosin-IIIb): 1 µM
IC50 [22]: 1 µM
IC50 [23]: 1 µM
IC50 [24]: 1 µM
IC50 [25]: 1 µM
IC50 [26]: 1 µM
IC50 [27]: 1 µM
IC50 [28]: 1 µM
IC50 [29]: 1 µM
IC50 [30]: 1 µM
IC50 [31]: 1 µM
IC50 [32]: 1 µM
IC50 [33]: 1 µM
IC50 [34]: 1 µM
inhibition [35]: 2%
inhibition [36]: 4%
inhibition [37]: -2%
SMILES: CN1C(=O)[C@@H](N2CCc3cn(CC4CCS(=O)(=O)CC4)nc3C2=O)COc2ccccc21 [TP-030n]
